From ChEMBL document CHEMBL1201862, “PubChem BioAssay data set” (2004)
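Growth conditions: 96-well plates. Treatment: test compound, 48 hours, 5 concentrations. Analysis: linear interpolation between bracketing concentrations; unreached endpoints set to highest concentration. Abbreviation: GI50, concentration required for 50% inhibition of growth.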 Calls of active or inactive are those of the source. No stated cut-off is given here; in the data, active = GI50 up to about 1.1 µM and inactive = higher.

How the values were obtained:
Experiment in all cases: growth of human tumour cells (NCI), 48 h
CAKI-1 = test system: CAKI-1
TK-10 = test system: TK-10
RPMI-8226 = test system: RPMI-8226
SNB-75 = test system: SNB-75
NCI-H226 = test system: NCI-H226
KM12 = test system: KM12
HCT-116 = test system: HCT-116
SK-MEL-5 = test system: SK-MEL-5
M14 = test system: M14
SF-539 = test system: SF-539
KM-20L2 = test system: KM-20L2
ACHN = test system: ACHN
Malme-3M = test system: Malme-3M
SR = test system: SR
SK-OV-3 = test system: SK-OV-3
UACC-257 = test system: UACC-257
UO-31 = test system: UO-31
Hs-578T = test system: Hs-578T
RXF 393 = test system: RXF 393
NCI/ADR-RES = test system: NCI/ADR-RES

SMILES	GI50 (CAKI-1)	GI50 (TK-10)	GI50 (RPMI-8226)	GI50 (SNB-75)	GI50 (NCI-H226)	GI50 (KM12)	GI50 (HCT-116)	GI50 (SK-MEL-5)	GI50 (M14)	GI50 (SF-539)	GI50 (KM-20L2)	GI50 (ACHN)	GI50 (Malme-3M)	GI50 (SR)	GI50 (SK-OV-3)	GI50 (UACC-257)	GI50 (UO-31)	GI50 (Hs-578T)	GI50 (RXF 393)	GI50 (NCI/ADR-RES)
O=C(N/N=C1/C(=O)N(c2ccc(Cl)cc2Cl)C(=O)C(=O)C1c1nc2ccccc2o1)c1ccccc1O (centres undefined)	34.8 µM (inactive)	38.9 µM (inactive)	43.4 µM (inactive)	43.3 µM (inactive)	> 100 µM (inactive)	42.4 µM (inactive)	37.2 µM (inactive)	19 µM (inactive)	28.3 µM (inactive)	29.4 µM (inactive)	> 100 µM (inactive)	37.5 µM (inactive)	27.3 µM (inactive)	47.2 µM (inactive)	33 µM (inactive)	–	–	–	–	–
NCCSCC(N)C(=O)O (centres undefined)	> 100 µM (inactive)	> 497 µM (inactive)	47.1 µM (inactive)	> 40.4 µM (inactive)	> 497 µM (inactive)	38 µM (inactive)	39.7 µM (inactive)	> 63.7 µM (inactive)	> 497 µM (inactive)	> 497 µM (inactive)	> 497 µM (inactive)	65.9 µM (inactive)	> 66.2 µM (inactive)	> 497 µM (inactive)	> 497 µM (inactive)	> 497 µM (inactive)	85.5 µM (inactive)	> 95.1 µM (inactive)	> 497 µM (inactive)	> 100 µM (inactive)
O=C(N/C(=C\c1ccc(Br)cc1)c1nc2ccccc2s1)c1ccccc1	> 100 µM (inactive)	> 100 µM (inactive)	32.5 µM (inactive)	> 100 µM (inactive)	> 100 µM (inactive)	> 100 µM (inactive)	53 µM (inactive)	36 µM (inactive)	> 100 µM (inactive)	88.9 µM (inactive)	> 100 µM (inactive)	76.9 µM (inactive)	> 100 µM (inactive)	–	> 100 µM (inactive)	> 100 µM (inactive)	40.3 µM (inactive)	–	43.4 µM (inactive)	–
COc1ccccc1-c1cc(=O)c2ccccc2[nH]1	–	> 100 µM (inactive)	70 µM (inactive)	55.7 µM (inactive)	70.1 µM (inactive)	63.7 µM (inactive)	> 100 µM (inactive)	–	99.8 µM (inactive)	> 100 µM (inactive)	> 100 µM (inactive)	> 100 µM (inactive)	49 µM (inactive)	55.1 µM (inactive)	73.6 µM (inactive)	> 100 µM (inactive)	60.7 µM (inactive)	–	> 100 µM (inactive)	–
O=C(NC(=O)c1c(Cl)nc2sccn12)Nc1ccc(Cl)cc1	> 83.9 µM (inactive)	35.6 µM (inactive)	> 100 µM (inactive)	19.9 µM (inactive)	45.2 µM (inactive)	> 93.5 µM (inactive)	69.2 µM (inactive)	> 88.3 µM (inactive)	78.3 µM (inactive)	30 µM (inactive)	> 100 µM (inactive)	77.4 µM (inactive)	84.3 µM (inactive)	> 100 µM (inactive)	27.4 µM (inactive)	> 100 µM (inactive)	67.1 µM (inactive)	8.81 µM (inactive)	30.9 µM (inactive)	> 70.3 µM (inactive)
C=C1C(=O)OC2(C)C3CCC(C3)C12 (centres undefined)	30.1 µM (inactive)	36.3 µM (inactive)	34.4 µM (inactive)	47.1 µM (inactive)	> 100 µM (inactive)	43.4 µM (inactive)	37.6 µM (inactive)	87.1 µM (inactive)	27.7 µM (inactive)	98.2 µM (inactive)	45.1 µM (inactive)	> 100 µM (inactive)	44.1 µM (inactive)	29.6 µM (inactive)	> 100 µM (inactive)	–	> 100 µM (inactive)	–	–	–
O=C(CSC(=S)N1CCOCC1)Nc1nc2c(s1)CCCC2	–	> 100 µM (inactive)	> 100 µM (inactive)	> 100 µM (inactive)	> 100 µM (inactive)	> 100 µM (inactive)	> 100 µM (inactive)	35.5 µM (inactive)	> 100 µM (inactive)	> 100 µM (inactive)	> 100 µM (inactive)	> 100 µM (inactive)	45.3 µM (inactive)	34.2 µM (inactive)	> 100 µM (inactive)	45.7 µM (inactive)	41.4 µM (inactive)	–	–	–
C=CCC1(C)CCCCC1(O)C[S+]([O-])c1ccccc1 (centres undefined)	> 100 µM (inactive)	> 100 µM (inactive)	33.7 µM (inactive)	> 100 µM (inactive)	20.9 µM (inactive)	> 100 µM (inactive)	> 100 µM (inactive)	> 100 µM (inactive)	> 100 µM (inactive)	> 100 µM (inactive)	> 100 µM (inactive)	> 100 µM (inactive)	> 100 µM (inactive)	> 100 µM (inactive)	> 100 µM (inactive)	> 100 µM (inactive)	> 100 µM (inactive)	–	> 100 µM (inactive)	–
C=C[C@@H](C)[C@]1(C(=O)OC)CCCC12OCCO2	> 100 µM (inactive)	> 100 µM (inactive)	72.9 µM (inactive)	> 100 µM (inactive)	> 100 µM (inactive)	> 100 µM (inactive)	> 100 µM (inactive)	> 100 µM (inactive)	> 100 µM (inactive)	> 100 µM (inactive)	> 100 µM (inactive)	> 100 µM (inactive)	> 100 µM (inactive)	68.5 µM (inactive)	> 100 µM (inactive)	> 100 µM (inactive)	> 100 µM (inactive)	–	> 100 µM (inactive)	–
N#CCCN(CCC#N)c1ccc(/C=N\c2nc(-c3ccccc3)cs2)cc1	> 100 µM (inactive)	81.7 µM (inactive)	> 100 µM (inactive)	29.8 µM (inactive)	> 100 µM (inactive)	–	> 100 µM (inactive)	> 100 µM (inactive)	> 100 µM (inactive)	> 100 µM (inactive)	> 100 µM (inactive)	> 100 µM (inactive)	> 100 µM (inactive)	–	> 100 µM (inactive)	> 100 µM (inactive)	> 100 µM (inactive)	–	39.7 µM (inactive)	–
COc1cc(O)c(C(=O)CC(C)=O)c(OC)c1	> 100 µM (inactive)	> 100 µM (inactive)	> 100 µM (inactive)	76.4 µM (inactive)	> 100 µM (inactive)	> 100 µM (inactive)	> 100 µM (inactive)	> 100 µM (inactive)	> 100 µM (inactive)	> 100 µM (inactive)	> 100 µM (inactive)	> 100 µM (inactive)	> 100 µM (inactive)	–	> 100 µM (inactive)	> 100 µM (inactive)	> 100 µM (inactive)	–	> 100 µM (inactive)	–
O=C1C[C@@H]2C(COC(=O)c3ccccc3)N(OCc3ccccc3)C[C@@H]2O1 (some centres undefined)	–	> 100 µM (inactive)	–	> 100 µM (inactive)	> 100 µM (inactive)	> 100 µM (inactive)	> 100 µM (inactive)	> 100 µM (inactive)	> 100 µM (inactive)	> 100 µM (inactive)	> 100 µM (inactive)	> 100 µM (inactive)	> 100 µM (inactive)	> 100 µM (inactive)	> 100 µM (inactive)	> 100 µM (inactive)	> 100 µM (inactive)	–	> 100 µM (inactive)	–
O=S(=O)(O)SC/C=C\CSS(=O)(=O)O	> 100 µM (inactive)	> 100 µM (inactive)	> 100 µM (inactive)	> 100 µM (inactive)	> 100 µM (inactive)	> 100 µM (inactive)	> 100 µM (inactive)	> 100 µM (inactive)	> 100 µM (inactive)	> 100 µM (inactive)	> 100 µM (inactive)	> 100 µM (inactive)	> 100 µM (inactive)	> 100 µM (inactive)	> 100 µM (inactive)	> 100 µM (inactive)	> 100 µM (inactive)	–	> 100 µM (inactive)	–
O=S(O)CCCSSCCCCSSCCCS(=O)O	> 100 µM (inactive)	> 100 µM (inactive)	–	66.8 µM (inactive)	–	> 100 µM (inactive)	> 100 µM (inactive)	> 100 µM (inactive)	> 100 µM (inactive)	> 100 µM (inactive)	> 100 µM (inactive)	> 100 µM (inactive)	> 100 µM (inactive)	–	> 100 µM (inactive)	> 100 µM (inactive)	> 100 µM (inactive)	–	> 100 µM (inactive)	–
O=[N+]([O-])c1cccc(Nc2nc(Cl)nc(Cl)n2)c1	> 100 µM (inactive)	–	> 100 µM (inactive)	> 100 µM (inactive)	> 100 µM (inactive)	> 100 µM (inactive)	> 100 µM (inactive)	> 100 µM (inactive)	> 100 µM (inactive)	> 100 µM (inactive)	> 100 µM (inactive)	> 100 µM (inactive)	> 100 µM (inactive)	> 100 µM (inactive)	> 100 µM (inactive)	> 100 µM (inactive)	> 100 µM (inactive)	–	–	–
CCC1(O)C(=O)OCc2c1cc1n(c2=O)Cc2cc3c(N)cccc3nc2-1 (centres undefined) [RS-9-Aminocamptothecin]	< 0.01 µM (active)	3.02 µM (inactive)	0.0416 µM (active)	0.013 µM (active)	< 0.01 µM (active)	0.24 µM (active)	0.0171 µM (active)	0.0255 µM (active)	0.0174 µM (active)	< 0.014 µM (active)	0.132 µM (active)	< 0.01 µM (active)	0.21 µM (active)	< 0.01 µM (active)	0.0264 µM (active)	0.121 µM (active)	< 0.0109 µM (active)	3.65 µM (inactive)	0.0447 µM (active)	0.0118 µM (active)
